Our source for the viability values is patent publication US20180318196A1, “COMPOSITION FOR PROTECTING THE SKIN AGAINST THE EFFECTS OF POLLUTION AND USE THEREOF” (LUBRIZOL ADVANCED MATERIALS, INC., priority 2015, published 2018).

Read-outs that look alike come from different tables or passages of the source.

For this assay, the system named is Normal Human Epidermal Keratinocytes from adult (NHEK). As to the kind of experiment: Protection from damage induced by Urban Dust, MTT cell viability assay. It counts as cell-based. As for the experimental part:
The capacity of protecting skin cell cultures from damage induced by Urban Dust (UD) is evaluated. The UD used is particulate matter (PMs, one of the major air pollutants with effects on the skin) collected in an urban area, Washington DC in 1976 and 1977, with an average particle size of 10.5 μm that contain polycyclic aromatic hydrocarbons (PAHs), polychlorinated biphenyl (PCBs), nitro-PAHs, chlorinated pesticides, dioxins and heavy metals: Damage is generated by the addition of UD to the culture medium and the protection effect from damage of the tested compounds is measured by a cell viability assay.
The viability is evaluated by MTT (3-[4,5-dimethylthiazol-2-yl]-2,5 diphenyl tetrazolium bromide), an absorbance-based cell viability method. Live cells present mitochondrial dehydrogenase activity that reduces the dye MTT to an insoluble blue colored product easily detected by absorbance, reflecting viable cells. […]
Then, cellular viability is evaluated. […] Then, plates are shaken for 5 minutes at room temperature protected from light and absorbance read at 570 nm with wavelength correction at 630 nm, using a Microplate Absorbance Reader (Clariostar®,BMG LabTech).
The percentage of cell viability for each condition is calculated with respect to control without pollutants (cells treated with medium alone and not treated with UD). […]
For orientation: Formazan colour is commonly taken as a measure of viable cells.

With `COc1cc2c(cc1O)CCC(C)(C)O2` [LPCH, 7-methoxy-2,2-dimethylchroman-6-ol], the viability at 50 µg/mL came out at 85.8 ± 3.68% (read-out: Relative Cell Viability with Respect To Control without pollutants (%) (MEAN ± SEM), 50 μg/mL LPCH + 50 μg/mL UD) and 79 ± 3.21% (read-out: Relative Cell Viability with Respect To Control without pollutants (%) (MEAN ± SEM), 50 μg/mL LPCH + 100 μg/mL UD).
